Results on 13 molecules are retold here after PubChem BioAssay (NCI).

Assay in all cases: DTP human tumour cell line panel, 48 h
Test [1] has as its system A498 renal.
Test [2] deals with HOP-62 NSCLC.
Test [3] has as its system K-562 leukemia.
Test [4] relates to LOX IMVI melanoma.
Test [5] deals with MOLT-4 leukemia.
Test [6] deals with NCI/ADR-RES ovarian.
Test [7] deals with OVCAR-8 ovarian.
The test system of test [8] is PC-3 prostate.
Test [9] relates to SK-MEL-28 melanoma.
Test [10] concerns TK-10 renal.

Several values for one entry are separate records, joined by “and”; a condition that tells them apart may be missing. Equal entries are not always repeated.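 Briefly, cells in 96-well plates were exposed to five compound concentrations for 48 h, and endpoints were estimated by linear interpolation. Here, GI50 denotes the concentration required for 50% inhibition of growth. TGI: concentration producing complete growth inhibition.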

In general, TGI refers to the concentration at which net growth stops. Regarding `COc1cc(C2SCCCCCCCCCCSC(c3ccc(O)c(OC)c3)SCCCCCCCCCCS2)ccc1O` (configuration not stated), the TGI in [1], in [2], in test [3], in [4], in [5] and in [6] was greater than 100 µM each time. For the same molecule, the TGI in test [7], in test [8], in test [9] and in test [10] was greater than 100 µM each time.

`NC(=O)N/N=C(/CC1C(=O)Oc2ccccc21)c1ccccc1O` (configuration not stated): the TGI in test [1] was greater than 100 µM; in [2] it was greater than 100 µM; in test [3], greater than 100 µM; in [4] it was 41.5 µM; in test [5] it was 50.9 µM; in test [6], 98.2 µM. Besides, the TGI in test [7], in test [8], in test [9] and in test [10] was greater than 100 µM each time.

The GI50 is the concentration that inhibits growth by half. Turning to `CC1CCC2(NC1)OC1CC3C4CC=C5CC(O)CCC5(C)C4CCC3(C)C1C2C` (configuration not stated), the GI50 in test [1] is 18.7 µM and 5.56 µM; in test [2], 27.4 µM and 9.34 µM; in [4] it was 19.9 µM and 4.93 µM; in test [7], 10.6 µM and 5.16 µM; in test [9] it was 56.4 µM and 25.6 µM. Also, the concentration for total growth inhibition (TGI) in [1] was 38.5 µM and 14.5 µM; in test [2], 92.4 µM and 46.2 µM; in [3], greater than 100 µM; in test [4], 57.3 µM and > 63.8 µM; in [5] it was 55.5 µM and 59.5 µM; in test [6] it was 51.3 µM and > 57.1 µM. For the same molecule, the TGI in test [7] was 35.9 µM and 49 µM; in test [8] it was greater than 100 µM; in test [9], greater than 100 µM; in test [10], 47.9 µM and 44.7 µM.

Regarding `O=C(NOC[C@H](O)CO)c1ccc(F)c(F)c1Nc1ccc(I)cc1F`, the GI50 was < 0.01 µM and 0.00351 µM in test [1]; 0.00599 µM in test [2]; < 0.0127 µM and 0.0397 µM in test [4]; 57.9 µM and > 10 µM in test [5]; 12.3 µM and 6.3 µM in [6]; 21.7 µM and > 7.5 µM in test [7]. Besides, the GI50 was 62.6 µM and > 10 µM in test [8]; < 0.01 µM and 0.00192 µM in test [9]; 0.0314 µM and 0.0174 µM in test [10]. In addition, the TGI in [1] was 0.0647 µM and 0.0694 µM; in [2], greater than 100 µM; in test [3], greater than 100 µM; in test [4] it was 19.9 µM and > 6.5 µM; in test [5], greater than 100 µM; in test [6], greater than 100 µM. The TGI in test [7] is greater than 100 µM; in [8] it was greater than 100 µM; in test [10], 86.2 µM and > 10 µM.

For `COc1cc(F)c(F)c(Nc2ccc(I)cc2F)c1NS(=O)(=O)C1(C[C@H](O)CO)CC1`, the 50% growth inhibitory concentration (GI50) is 0.0936 µM in [1]; 0.184 µM in test [2]; 1.34 µM in test [3]; 0.556 µM in test [4]; greater than 6.02 µM in test [5]; greater than 5.58 µM in test [6]. Further, the GI50 is greater than 6.48 µM in test [7], greater than 6.75 µM in test [8], 0.029 µM in [9] and 0.135 µM in test [10]. The TGI was 0.478 µM in test [1]; greater than 10 µM in [2]; greater than 10 µM in test [3]; greater than 10 µM in [4]; greater than 10 µM in test [5]; greater than 10 µM in test [6]. Also, the concentration for total growth inhibition (TGI) in [7] is greater than 10 µM; in test [8] it was greater than 10 µM; in test [9], 0.448 µM; in test [10], greater than 10 µM.

With `COc1ccccc1C#Cc1ccccc1C#CCCCCO`, the GI50 in test [1] was 13.3 µM; in test [2] it was 14.6 µM; in [3], 15.5 µM; in test [4], 17.9 µM; in test [5], 19.6 µM; in test [6], 21.9 µM. Further, the GI50 in test [7] was 22.6 µM; in [8], 15.4 µM; in test [9], 16.8 µM; in test [10], 34.5 µM. Besides, the TGI in test [1] is 27.9 µM; in test [2] it was greater than 100 µM; in test [3] it was greater than 100 µM; in test [4], 36 µM; in test [5] it was 96 µM; in test [6] it was 47.4 µM. Besides, the total growth inhibition concentration (TGI) in test [7] is 74.9 µM; in [8], 42.2 µM; in test [9] it was 33.4 µM; in test [10], greater than 100 µM.

Turning to `COc1cc2ncn(-c3cc(OCc4ccccc4C(F)(F)F)c(C(=O)N(C)C)s3)c2cc1OC`, the GI50 was 4.58 µM in test [1]; greater than 13.5 µM in test [2]; greater than 21.3 µM in test [3]; greater than 25 µM in [4]; greater than 25 µM in [5]; greater than 17 µM in test [6]. The GI50 in [7] was 17.7 µM; in [8] it was greater than 19 µM; in test [9] it was greater than 25 µM; in test [10], greater than 22.6 µM. For the same molecule, the concentration for total growth inhibition (TGI) in [1] is greater than 23.5 µM; in test [2], greater than 25 µM; in test [3], greater than 25 µM; in test [4], greater than 25 µM; in test [5], greater than 25 µM; in test [6], greater than 25 µM. Besides, the TGI in test [7], in [8], in test [9] and in test [10] was greater than 25 µM throughout.

On to `O=C(c1nc2ccc([N+](=O)[O-])cc2[nH]c1=O)C(O)c1ccc2c(c1)OCO2` (configuration not stated), for which the TGI in [1], in test [2], in test [3], in test [4], in test [5] and in test [6] was greater than 100 µM each time. Further, the TGI in test [7], in test [8], in test [9] and in [10] was greater than 100 µM throughout.

On to `CC(=O)c1ccc2c(c1)C1C=CCC1[C@H](c1cc3c(cc1Br)OCO3)N2` (some centres not stated), for which the GI50 was 0.482 µM in [1]; 1.9 µM in test [2]; 0.794 µM in test [3]; 1.31 µM in test [4]; 1.03 µM in test [5]; 1.33 µM in [6]. Besides, the GI50 in [7] was 1.63 µM; in [8], 0.636 µM; in test [9], 0.626 µM; in test [10], 2.04 µM. For the same molecule, the TGI in [1] turned out to be 2.14 µM; in test [2], 28.9 µM; in test [4], 2.62 µM; in test [5], 7.77 µM; in test [6], 4.71 µM; in test [7], 13 µM. Further, the TGI in test [8] turned out to be 7.04 µM; in test [9], 6.56 µM; in [10], 37.1 µM.

As for `CC(C)c1cnn2c(NCc3ccccc3)cc(NC[C@H]3CCNC[C@@H]3O)nc12`, the GI50 in [1] is 1.63 µM and 2.59 µM; in [2] it was 0.225 µM and 0.348 µM; in [3], 0.409 µM and 0.571 µM; in test [4] it was 0.0945 µM and 0.0967 µM; in test [5], 0.361 µM and 0.504 µM; in test [6] it was 15.4 µM and 19.7 µM. The GI50 in [7] was 0.555 µM and 0.745 µM; in test [8], 0.363 µM and 0.587 µM; in [9], 0.388 µM and 0.343 µM; in [10], 1.5 µM and 2.27 µM. Moreover, the TGI in test [1] is 4.2 µM and 8.15 µM; in test [2] it was 1.33 µM and 3.13 µM; in test [3] it was 11.3 µM and > 100 µM; in [4], 1.49 µM and 0.542 µM; in [5], 10.2 µM and 14 µM; in test [6], 46.9 µM and > 87.5 µM. For the same molecule, the TGI in test [7] is 11.6 µM and 8.68 µM; in [8] it was 6.73 µM and 10.4 µM; in [9], 2.43 µM and 2.41 µM; in test [10], 10.4 µM and 10.9 µM.

`CS(=O)(=O)CCNCc1cc(-c2cc3c(Nc4ccc(OCc5cccc(F)c5)c(Cl)c4)ncnc3s2)cs1`: the GI50 was 2.27 µM in test [1]; greater than 16.8 µM in test [2]; 6.25 µM in test [3]; 5.56 µM in test [4]; 8.9 µM in test [5]; 11.3 µM in test [6]. Further, the GI50 in [7] was 16.5 µM; in [8] it was 13 µM; in test [9] it was 12.5 µM; in [10], 3.16 µM. For the same molecule, the TGI was greater than 25 µM in test [1]; greater than 25 µM in test [2]; 17.8 µM in test [3]; 16.3 µM in [4]; greater than 25 µM in [5]; greater than 25 µM in test [6]. The TGI in test [7], in [8], in [9] and in [10] was greater than 25 µM in each case.

With `CC(C)CCC[C@@H](C)[C@H]1CC[C@H]2[C@@H]3CC[C@H]4C[C@@H](CCC=C(c5cc(Cl)c(O)c(C(=O)O)c5)c5cc(Cl)c(O)c(C(=O)O)c5)CC[C@]4(C)[C@H]3CC[C@]12C`, the TGI in [1], in test [2], in test [3], in [4], in test [5] and in test [6] was greater than 100 µM in each case. In addition, the TGI in test [7], in [8], in [9] and in test [10] was greater than 100 µM in each case.

For the molecule `CCC(O)c1ccc(Br)cc1NC(=O)c1cccc(Cl)c1` (configuration not stated), the GI50 in test [1] is 16.3 µM; in test [2], 20 µM; in test [3], 15.6 µM; in test [4], 9.03 µM; in [5], 15.9 µM; in [6] it was 23.4 µM. Also, the GI50 in test [7] is 23.7 µM; in [8], 12.5 µM; in test [9], 23.9 µM; in [10], 41.7 µM. Besides, the concentration for total growth inhibition (TGI) was 54 µM in test [1]; 44.6 µM in [2]; greater than 100 µM in test [3]; 25 µM in [4]; 45.5 µM in test [5]; greater than 100 µM in test [6]. Also, the concentration for total growth inhibition (TGI) was 77.9 µM in [7], 53.4 µM in [8], 64.8 µM in [9] and greater than 100 µM in [10].
